From patent US8269043B2, “Bicyclic aryl sphingosine 1-phosphate analogs” (Biogen Idec MA Inc., priority 2008, dated 2012) come the findings set out here.

Experiment [1] has as its system sphingosine kinase 2 (SK2). Briefly: Sphingosine kinase 2 (SK2) substrate assay with lysate of transfected HEK293E cells, HPLC detection. The format is biochemical, canine, mouse, or human. The following applies: 20 μM test compound, 37° C., 70 minutes, HPLC with and without added SPHK2 (FIG. 7). The method, then:
To assay a test compound for its properties as a substrate of sphingosine kinase 2 (SK2), an assay using recombinantly expressed SK2 was used. Briefly, HEK293E cells were transiently transfected with plasmids containing DNA encoding a sphingosine kinase 2 (SK2) (canine, mouse, or human). […]
The SK2 kinase assay was performed in a 200 μL reaction mixture containing 20 μm sphingosine (control) or 20 μM test compound (prepared as a 200 μM stock solution containing 0.1% fatty acid-free bovine serum albumin (BSA)), 38 μL lysate, and 2 μM ATP (freshly prepared). Kinase reactions were incubated at 37° C. for 70 minutes followed by detection of phosphorylated compound (control or test compound) using UV absorbance at 282 nm. […] The supernatant was analyzed on HPLC using a C18 column (FIG. 7). The parent and phosphorylated test compound were quantitated using area under the curve (AUC) calculation. […]

Another experiment concerns the target T1, human S1P1 (Homo sapiens, UniProt P21453).
T1 construct: host or cells: recombinant CHEM cells
Briefly: Calcium mobilization assay, agonist activity at human S1P1. The class given is cell-based. The following applies: recombinant CHEM cells expressing human S1P1, FLIPR Calcium 4 dye (FIG. 8, FIG. 11). The method, then: (§1) Compounds that were not specific for the S1P, receptor, can have activity for other S1P receptor subtypes, e.g., S1P2, S1P3, S1P4, or S1P5, and can cause undesirable side effects. Accordingly, compounds were tested to identify those that were specific for S1P1 activity and had little or no activity, or are antagonists of, S1P3 activity. Accordingly, the test compounds were tested in a calcium mobilization assay to determine agonist activity at either the human S1P1 or human S1P3 receptor, and antagonist activity only at the human S1P3 receptor. The procedure was essentially as described (with modifications described below) in Davis et al. (2005) Journal of Biological Chemistry, vol. 280, pp. 9833-9841, which is incorporated by reference in its entirety. Calcium mobilization assays were performed in recombinant CHEM cells expressing human S1P1 or S1P3 purchased from Millipore (Billerica, Mass.). To detect free intracellular calcium, S1P1 or S1P3 cells were loaded with FLIPR Calcium 4 dye from Molecular Devices (Sunnyvale, Calif.). Cells were imagined for calcium mobilization using a FLIPR^TETRA equipped with a 96-well dispense head.
A general note: A change in cytosolic calcium serves as a functional read-out for many receptors and channels.

In experiment [2] the target is T2, human S1P3 receptor (Homo sapiens, UniProt Q99500).
T2 construct: host or cells: recombinant CHEM cells
T2 sequence (Q99500 whole entry): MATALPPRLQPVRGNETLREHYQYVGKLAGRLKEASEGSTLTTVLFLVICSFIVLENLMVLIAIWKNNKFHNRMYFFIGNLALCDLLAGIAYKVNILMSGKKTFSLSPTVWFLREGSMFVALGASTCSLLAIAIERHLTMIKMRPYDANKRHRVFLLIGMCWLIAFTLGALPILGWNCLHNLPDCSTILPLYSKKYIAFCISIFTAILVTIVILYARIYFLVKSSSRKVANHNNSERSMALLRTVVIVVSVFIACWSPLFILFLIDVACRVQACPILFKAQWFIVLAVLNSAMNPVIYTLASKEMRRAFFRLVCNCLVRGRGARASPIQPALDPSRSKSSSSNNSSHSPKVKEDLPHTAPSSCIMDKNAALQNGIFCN
The experiment can be described thus: Calcium mobilization assay, agonist activity at human S1P3. The note with it: recombinant CHEM cells expressing human S1P3, FLIPR Calcium 4 dye (FIG. 9, FIG. 11). The class given is cell-based. The method, then:
as §1

Experiment [3] concerns the target T2, human S1P3 receptor. The experiment can be described thus: Calcium mobilization assay, antagonist activity at human S1P3. The format is cell-based. The following applies: recombinant CHEM cells expressing human S1P3, FLIPR Calcium 4 dye (FIG. 10, FIG. 11). The method, then: as §1

T1 sequence (P21453 whole entry): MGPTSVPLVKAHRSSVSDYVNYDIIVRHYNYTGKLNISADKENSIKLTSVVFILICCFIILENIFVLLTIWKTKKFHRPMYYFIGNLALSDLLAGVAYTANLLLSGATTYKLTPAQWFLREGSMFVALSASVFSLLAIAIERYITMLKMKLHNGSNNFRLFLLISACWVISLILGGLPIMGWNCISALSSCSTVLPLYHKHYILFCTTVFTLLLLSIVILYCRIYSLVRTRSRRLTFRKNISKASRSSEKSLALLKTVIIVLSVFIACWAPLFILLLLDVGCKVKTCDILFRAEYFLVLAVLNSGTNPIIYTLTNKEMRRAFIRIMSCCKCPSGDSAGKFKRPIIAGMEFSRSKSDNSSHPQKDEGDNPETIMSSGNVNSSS

Regarding `CCCC[C@H]1CC[C@@H](Oc2ccc3cc([C@@](C)(N)COP(=O)(O)O)ccc3c2C(F)(F)F)CC1` (relative stereo) [Example 21, (R)-2-amino-2-(6-(cis-4-butylcyclohexyloxy)-5-(trifluoromethyl)naphthalen-2-yl)propan-1-phosphoric acid], the “phosphorylation of test compound by SPHK2” value in experiment [1] is reported as “the compound is phosphorylated under these conditions”. For the same molecule, the S1P1 agonist activity entry at human S1P1 was “agonists of the S1P, receptor, with potencies similar to S1P”. The S1P3 agonist activity entry at human S1P3 receptor [2] was “weak micromolar partial S1P3 agonist activity”. The S1P3 antagonist activity entry at human S1P3 receptor [3] is recorded as “do not antagonize the S1P3 receptor”.
`COc1ccc2cc([C@H](C)COC(N)=O)ccc2c1` [Example 2, carbamic acid (S)-2-(6-methoxy-naphthalen-2-yl)-propyl ester]: the S1P3 agonist activity entry at human S1P3 receptor [2] was “no activity was seen”.
As to `CC(C)(C)[C@H]1CC[C@H](Oc2ccc3cc(C(N)(COP(=O)(O)O)COP(=O)(O)O)ccc3c2C(F)(F)F)CC1` [Example 61A, 2-amino-2-[6-(trans-4-tert-butylcyclohexyloxy)-5-trifluoromethyl-naphthalen-2-yl]-propane-1,3-diphosphoric acid], the S1P1 agonist activity entry on human S1P1 is recorded as “agonists of the S1P, receptor, with potencies similar to S1P”. Besides, the S1P3 antagonist activity entry at human S1P3 receptor [3] is on record as “do not antagonize the S1P3 receptor”.
As to `C[C@](N)(COP(=O)(O)O)c1ccc2c(C(F)(F)F)c(O[C@H]3CC[C@H](C(F)(F)F)CC3)ccc2c1` [Example 269, Phosphoric acid mono-{(R)-2-amino-2-[5-trifluoromethyl-6-(trans-4-trifluoromethyl-cyclohexyloxy)-naphthalen-2-yl]-propyl}ester], the S1P1 agonist activity entry at human S1P1 is given as “S1P, agonists”. Further, the S1P3 agonist activity entry at human S1P3 receptor [2] is on record as “not S1P3 agonists”. Besides, the S1P3 antagonist activity entry at human S1P3 receptor [3] is reported as “S1P3 antagonists”.
Regarding `CCCCCCCCCCCCC/C=C/[C@@H](O)[C@@H](N)COP(=O)(O)O` [Example S1P, Sphingosine 1-phosphate], the S1P3 agonist activity entry on human S1P3 receptor [2] is recorded as “full S1P3 agonist”.
